# Results: patent publication US5994349A, “3-carboalkoxy-2, 3-dihydro-1H-phenothiazin-4[10H]-one derivatives” (priority 1997, dated 1999)
# Where two headings read alike, the source gives them in different places.
# Legend:
# [1] = stability in refluxing DMSO; format: physicochemical; details: refluxing DMSO for periods up to 40 min, forming 4m
# Procedure: Without wishing to be held to any particular theory, when experimental conditions for the final step are identical for each ester, (i.e., 40 min reflux in DMSO), it is believed that the ter-butyl compound 4c (X=H) undergoes thermal decomposition to give 2,3-dihydro-1H-phenothiazin-4[10H]-one, 4d (X=H). Thermal decomposition of the desired phenothiazine 4c (X=H) to butylene and the b-keto acid (4, R=X=H) is suspected, followed by decarboxylation of the latter compound to 4d (X=H). This is substantiated by the formation of the 4c series by employing shorter reflux times in DMSO. […] Friary and coworkers have shown that 7c (R=C(CH3)3) is readily decarboxylated under acid-catalyzed conditions to form 7d (see Scheme III below). Friary, R. J.; Gilligan, J. M.; Szajewski, R. P.; Falci, K. J.; Franck, R. W. Heterocyclic syntheses via the intramolecular acylation of enamines derived from animo acids. J. Org. Chem. 1973, 38, 3487-3490. [drawing 7]
# [2] = test system: maximal electroshock seizures; assay: maximal electroshock (MES) test, Phase I, mice ip; format: in vivo, male Carworth Farms No. 1 (CF1) mice; details: Mus musculus
# How it was run: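 Male CF1 mice (18-25 g) dosed ip at 30, 100 and 300 mg/kg in 0.5% methylcellulose, tested 30 min and 4 h later (sometimes 2 h and 6 h). Corneal 60-cycle, 50 mA current for 0.2 s; protection = abolition of hind limb tonic extension, scored as protected/tested.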
# neurotoxicity (rotorod) [3] = assay: rotorod toxicity, oral rat (Phase VIA/VIB); format: in vivo, male Sprague-Dawley rats; details: rat oral, 30 mg/kg
# Procedure: (§1) Initial evaluations for anticonvulsant activity include phases I, VIA and VIB test procedures. These tests are performed intraperitoneally in male Carworth Farms No. 1 (CF1) mice, weighing 18-25 g (Phase I) or orally in male Sprague-Dawley rats, weighing 100-150 g (Phases VIA and VIB). The evaluation is based on three tests: maximal electroshock (MES), subcutaneous (scMet), and the rotorod test for neurological toxicity (Tox). (a) Anticonvulsant Screening Project, Antiepileptic Drug Development Program, National Institutes of Health, DHEW Publ (NIH)(U.S.) 1978, NIH 78-1093. (b) Porter, R. J.; Cereghino, J. J.; Gladding, G. D.; Hessie, B. J.; Kupferberg, H. J.; Scoville, B.; White, B. G. Antiepileptic drug development program. Cleveland Clin. Q. 1984, 51, 293-305. (c) Krall, R. L.; Penry, J. K.; White, B. G.; Kupferberg, H. J.; Swinyard, E. A. Antiepileptic drug development: II. Anticonvulsant drug screening. Epilepsia 1978, 19, 400-428. In the MES test, maximal electroshock seizures are elicited with a 60- cycle alternating current of 50 mA intensity (5-7 times that necessary to elicit minimal electroshock seizures) delivered via corneal electrodes for 0.2 seconds. A drop of 0.9% saline is placed on the eye prior to application of the electrodes in order to […]. Abolition of the hind limb tonic extension component of the seizure is defined as protection and results are expressed as the number of animals protected/the number of animals tested.
# The rotorod test is used to evaluate neurotoxicity. The animal is placed on a 1 inch diameter knurled plastic rod rotating at 6 rpm. Normal mice can remain on a rod rotating at this speed indefinitely.
# (§2) To differentiate the results between different rodent species, 4b (X=H), as well as 4a (R=H), 4e (R=Cl), 4f (R=Cl) and 4i (R=CH3) are subsequently evaluated for oral (po) activity in the rat (Phase VIA or VIB).
# [4] = test system: maximal electroshock seizures; assay: maximal electroshock (MES) test, oral rat (Phase VIA/VIB); format: in vivo, male Sprague-Dawley rats; details: 30 mg/kg
# Procedure: as §1, §2
# [5] = test system: pentylenetetrazol seizures; assay: subcutaneous pentylenetetrazol (scMet) test, Phase I, mice ip; format: in vivo, male Carworth Farms No. 1 (CF1) mice; details: Mus musculus, mice ip
# neurotoxicity (rotorod) [6] = assay: rotorod test for neurological toxicity (Tox), Phase I, mice ip; format: in vivo, male Carworth Farms No. 1 (CF1) mice
# How it was run: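 Neurological toxicity was assessed in Phase I with the rotorod test in male Carworth Farms No. 1 (CF1) mice weighing 18-25 g, dosed intraperitoneally. Each mouse was set on a knurled plastic rod of 1 inch diameter turning at 6 rpm, a speed normal mice can stay on indefinitely. Motor impairment was recorded 30 min and 4 h after dosing, sometimes also at 2 h and 6 h.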
# [7] = 4 h, read-out: MES 4 h (converted)
# [8] = 0.5 h, 30 min, read-out: MES 30 min (converted)
# [9] = 0.5 h, 30 min, read-out: scMet 30 min
smiles,measurement,setting,value
"C[C@@H]1CC2=C(Sc3cc(Br)ccc3N2)C(=O)[C@H]1C(=O)OC(C)(C)C (relative stereo) [Compound 4l, 7-Bromo-3-carbo-ter-butoxy-2-methyl-2,3-dihydro-1H-phenothiazin-4[10H]-one]",stability in refluxing DMSO,[1],lability of the 3-carbo-ter butoxy substituent
same,responders at 30 mg/kg,"[2]; 4 h, read-out: MES 4 h",0%
same,responders at 100 mg/kg,[2]; [7],66.7%
same,responders at 300 mg/kg,[2]; [7],100%
same,responders at 3 mg/kg,"[2]; 0.5 h, 3 mg/kg, 30 min",0%
same,responders at 10 mg/kg,"[2]; 0.5 h, 10 mg/kg, 30 min, read-out: MES 30 min",0%
same,responders at 30 mg/kg,[2]; [8],100%
same,responders at 100 mg/kg,[2]; [8],100%
same,responders at 300 mg/kg,[2]; [8],100%
same,Tox,neurotoxicity (rotorod) [3]; 0.25 h,0/4
same,Tox,neurotoxicity (rotorod) [3]; 0.50 h,0/4
same,Tox,neurotoxicity (rotorod) [3]; 1.00 h,0/4
same,Tox,neurotoxicity (rotorod) [3]; 2.00 h,0/4
same,Tox,neurotoxicity (rotorod) [3]; 4.00 h,0/4
same,responders at 30 mg/kg,[4]; 0.25 h,50%
same,responders at 30 mg/kg,[4]; 1.00 h,100%
same,responders at 30 mg/kg,[4]; 2.00 h,100%
same,responders at 30 mg/kg,[4]; 4.00 h,100%
same,responders at 30 mg/kg,"[4]; 0.5 h, 0.50 h",50%
same,responders at 30 mg/kg,[5]; [9],0%
same,responders at 100 mg/kg,[5]; [9],0%
same,responders at 300 mg/kg,"[5]; 0.5 h, 30 min, read-out: scMet 30 min (converted)",33.3%
same,responders at 30 mg/kg,"[5]; 4 h, read-out: scMet 4 h",0%
same,responders at 100 mg/kg,"[5]; 4 h, read-out: scMet 4 h",0%
same,responders at 300 mg/kg,"[5]; 4 h, read-out: scMet 4 h (converted)",0%
same,Tox 30 min,neurotoxicity (rotorod) [6]; 10 mg/kg,0/4
same,Tox 30 min,neurotoxicity (rotorod) [6]; 30 mg/kg,0/4
same,Tox 4 h,neurotoxicity (rotorod) [6]; 30 mg/kg,0/2
same,Tox 30 min,neurotoxicity (rotorod) [6]; 100 mg/kg,0/8
same,Tox 4 h,neurotoxicity (rotorod) [6]; 100 mg/kg,0/4
same,Tox 30 min,neurotoxicity (rotorod) [6]; 300 mg/kg,0/4
same,Tox 4 h,neurotoxicity (rotorod) [6]; 300 mg/kg,0/2
